Results reported in ChEMBL document CHEMBL3228028, “Enzyme affinity of the 5,6-dihydro derivatives of the substrate and product of thymidylate synthetase catalysis” (J Med Chem, 1979).

Legend:
[1] = biological target: T1, Thymidylate synthase (Lactobacillus casei, UniProt P00469); assay: Competitive inhibition of Lactobacillus casei thymidylate synthetase using 2'-deoxy[5-3H]uridine-5'-phosphate as substrate assessed as release of water after 15 mins by double reciprocal plot analysis; set-up: species or system Lacticaseibacillus casei
T1 sequence (P00469 whole entry): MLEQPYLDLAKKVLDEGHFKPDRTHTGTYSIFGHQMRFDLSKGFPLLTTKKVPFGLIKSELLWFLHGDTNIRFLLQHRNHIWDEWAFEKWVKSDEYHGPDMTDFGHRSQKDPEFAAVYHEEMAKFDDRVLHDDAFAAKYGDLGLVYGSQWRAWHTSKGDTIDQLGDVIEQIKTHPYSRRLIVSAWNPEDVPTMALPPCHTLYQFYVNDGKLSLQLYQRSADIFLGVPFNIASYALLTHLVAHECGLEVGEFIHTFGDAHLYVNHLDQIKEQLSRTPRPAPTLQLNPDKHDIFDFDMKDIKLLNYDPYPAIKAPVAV

[2] = biological target: T1, Thymidylate synthase; assay: Competitive inhibition of Lactobacillus casei thymidylate synthetase using dTMP as substrate assessed as release of water after 15 mins by double reciprocal plot analysis; set-up: species or system Lacticaseibacillus casei

Compound | Ki [1] [µM] | Ki [2] [µM]
O=C1CCN([C@H]2C[C@H](O)[C@@H](COP(=O)(O)O)O2)C(=O)N1 | 100 | 2.8
CC1CN([C@H]2C[C@H](O)[C@@H](COP(=O)(O)O)O2)C(=O)NC1=O (stereo partly drawn) | 150 | 
